{
  "source": "PubChem BioAssay AID687031",
  "about": "(Broad Institute, 2013)",
  "data": [
    {"test_system": "BHK-21 DENV2 CPE protection, ATP luminescence, 5 d", "test": "antiviral rescue of DENV2-infected BHK-21 cells – cell-based, ATP luminescence, cherry-pick, dose response (AID 687031)", "units": {"AC30": "µM"}, "values": [
      {"smiles": "c1ccc(C2CC2)c(OCC2=NCCN2)c1", "AC30": 9.54},
      {"smiles": "C[C@H](NC(=O)[C@H]1N[C@H]2c3ccc(-c4cccnc4)c(=O)n3C[C@H]2[C@@H]1CO)c1ccccc1", "AC30": 12.5},
      {"smiles": "Cc1ccccc1S(=O)(=O)N1CC[C@@H]2[C@H](CO)Nc3ccc(-c4cccc(C#N)c4)cc3[C@@H]21", "AC30": 15.9},
      {"smiles": "CSc1ccccc1OCc1cc(C(=O)N2CCc3[nH]cnc3C2c2ccccn2)no1", "note": "(centres undefined)", "AC30": 9.97},
      {"smiles": "CC1CCN(C(=O)COC(=O)CNC(=O)c2ccccc2F)CC1", "AC30": 19.4},
      {"smiles": "CCOc1ccc2[nH]cc(S(=O)(=O)c3ccc(C)cc3)c(=O)c2c1", "AC30": 13},
      {"smiles": "O=C1[C@@H](Oc2ccccc2)[C@@H](c2ccncc2)N1c1ccccc1", "AC30": 14.2},
      {"smiles": "COC(=O)N1CCCCC1c1cc(C(=O)Nc2ccc(OC)cc2C)no1", "note": "(centres undefined)", "AC30": 13},
      {"smiles": "Nc1ncccc1C(=O)OCC(=O)N1CCN(S(=O)(=O)c2ccc(Cl)cc2)CC1", "AC30": 19},
      {"smiles": "C[C@H](NC(=O)CCCOc1ccc(Cl)cc1Cl)c1nnc2ccccn12", "AC30": 16.2},
      {"smiles": "COC(=O)[C@H]1CN(C(=O)c2ccccc2)C(=O)N1", "AC30": 5.13},
      {"smiles": "CCCNC(=O)C[C@H]1CC[C@@H]2[C@H](COC[C@@H](O)CN2C(=O)c2ccccn2)O1", "AC30": 17.3},
      {"smiles": "CC(C)[C@H](NC(=O)N1C[C@H]2C[C@@H](C1)c1cccc(=O)n1C2)C(=O)Nc1ccccc1F", "AC30": 16.2},
      {"smiles": "CCc1c(C2(O)CCCCC2)[nH]c2c(C(=O)OC)cc(Cl)cc12", "AC30": 12.3},
      {"smiles": "Cc1cc(C)cc(NC(=O)Cn2nnc(C(=O)NCc3cccs3)c2N)c1", "AC30": 13.3},
      {"smiles": "Cn1cnc(S(=O)(=O)N[C@@H]2C=C[C@H](CC(=O)N3CCN(c4ccccc4)CC3)O[C@@H]2CO)c1", "AC30": 17},
      {"smiles": "CN(C)CC(=O)Nc1ccc2c(c1)[C@@H]1C[C@@H](CC(=O)NC3CCCCC3)O[C@H](CO)[C@@H]1O2", "AC30": 8.06},
      {"smiles": "CS(=O)(=O)N1C[C@@H]2N[C@H](C1)[C@@H]2c1ccc(-c2ccccc2)cc1", "AC30": 5.51},
      {"smiles": "O=C(C1CCOCC1)N1C[C@H]2[C@@H](c3ccccc31)[C@@H](CO)N2C(=O)c1ccccc1", "AC30": 18.8},
      {"smiles": "Cc1cc(OC(C)C(=O)NC2CC(C)(C)NC(C)(C)C2)c2c(C)c(C)c(=O)oc2c1", "note": "(centres undefined)", "AC30": 2.89},
      {"smiles": "C[C@@H]1CCCCO[C@H](CN(C)S(=O)(=O)c2ccccc2)[C@@H](C)CN([C@@H](C)CO)C(=O)c2cc(NC(=O)c3ccncc3)ccc2O1", "AC30": 17.6},
      {"smiles": "CC1CCCC(NC(=O)COC(=O)c2ccccc2Sc2ccccc2C#N)C1C", "note": "(centres undefined)", "AC30": 12.7},
      {"smiles": "COC(=O)[C@@H]1[C@@H](CO)[C@@H]2Cn3c(ccc(C4=CCCC4)c3=O)[C@H]1N2Cc1ccccn1", "AC30": 17.2},
      {"smiles": "C[C@H](CO)N1C[C@H](C)[C@H](CN(C)C(=O)Nc2ccc(-c3ccccc3)cc2)OCc2ccccc2-c2c(n(C)c3ccccc23)C1=O", "AC30": 17.7},
      {"smiles": "Cc1noc(C)c1NC(=O)Nc1ccc2c(c1)C(=O)N([C@@H](C)CO)C[C@@H](C)[C@@H](CN(C)S(C)(=O)=O)OCCCC[C@@H](C)O2", "AC30": 18.6},
      {"smiles": "CCOC(=O)N1CCN(C(C(=O)NC2CCCC2)C(C)C)CC1", "note": "(centres undefined)", "AC30": 9.37},
      {"smiles": "Cc1c(C(=O)OC(C)C)sc(N)c1C(=O)OC(C)C", "AC30": 18.6},
      {"smiles": "Cc1cccc([C@@H]2[C@@H]3C(=O)N(C)C(=O)[C@@H]3[C@@H]3C(=O)Nc4ccccc4C(=O)N23)c1", "AC30": 18.7},
      {"smiles": "O=C(c1ccccc1)N1CC[C@@H]2[C@H](CO)Nc3ccc(C#Cc4cccc(F)c4)cc3[C@@H]21", "AC30": 3.21},
      {"smiles": "COc1cccc(-c2ccc(C3[C@@H]4CN(S(=O)(=O)c5cn(C)cn5)C[C@H]3N4)cc2)c1", "note": "(some centres undefined)", "AC30": 7.87},
      {"smiles": "CCN(CC(=O)NCC(=O)Nc1cccc(C)c1C)Cc1ccccc1", "AC30": 19.3},
      {"smiles": "Cc1cc(F)cc(-c2cc(C(=O)NCC3CCCCC3)[nH]n2)c1", "AC30": 10},
      {"smiles": "Oc1cccc2nc3ccccc3nc12", "AC30": 14.4},
      {"smiles": "CCN(CC)CC(=O)N1CCCC(N2CCN(c3cccc(C(F)(F)F)c3)CC2)C1", "note": "(centres undefined)", "AC30": 19.1},
      {"smiles": "COc1ccc(C(N)c2csc(Nc3cc(Oc4ccccc4)ncn3)n2)cc1", "note": "(centres undefined)", "AC30": 17.4},
      {"smiles": "Cc1cc(F)ccc1C(O)c1ncc(-c2ccccc2C(F)(F)F)[nH]1", "note": "(centres undefined)", "AC30": 18.4},
      {"smiles": "CC1CCCN(C(=O)c2ccc(S(=O)(=O)Nc3ccccc3Cl)cc2)C1", "note": "(centres undefined)", "AC30": 13.5},
      {"smiles": "O=C(O)C1C2C=CC(C2)C1C(=O)NCc1ccccc1", "note": "(centres undefined)", "AC30": 15.5},
      {"smiles": "CCC[C@@H]1CCCO[C@@](C(=O)NCc2ccccn2)(C(F)(F)F)C1", "AC30": 10},
      {"smiles": "NC(=O)c1ccsc1NC(=O)COC(=O)[C@@H]1CCCN1C(=O)c1cccs1", "AC30": 11},
      {"smiles": "Cc1ccc(C(=O)NCC(=O)NCC(c2cccs2)N2CCOCC2)cc1C", "note": "(centres undefined)", "AC30": 14.8},
      {"smiles": "OC(CSc1nnnn1-c1ccccc1)Cn1c2ccccc2c2ccccc21", "note": "(centres undefined)", "AC30": 18.8},
      {"smiles": "COCCNC(=O)CCC1CCN(C/C=C/c2ccccc2OC)CC1", "AC30": 19.3},
      {"smiles": "CC1CCN(CCOc2ccc(OCc3ccccc3)cc2)CC1", "AC30": 11.3},
      {"smiles": "FC(F)(F)c1cccnc1Oc1ccc(C2=NCCS2)cc1", "AC30": 8.01},
      {"smiles": "CC(=O)N1CCN(C(=O)COC(=O)COc2c(C)cc(C)cc2C)CC1", "AC30": 11.7},
      {"smiles": "O=S(=O)(c1ccc2c(c1)OCCO2)N1CCCN(S(=O)(=O)c2c(F)cccc2F)CC1", "AC30": 17.5},
      {"smiles": "CCNS(=O)(=O)c1ccc(Br)c(C(=O)OC(C)C(=O)NCC2CCCCC2)c1", "note": "(centres undefined)", "AC30": 2.25},
      {"smiles": "COc1ccc(CN2CCNC(=O)C2CC(=O)NCC2CCOCC2)c(C)c1C", "note": "(centres undefined)", "AC30": 15.7}
    ]}
  ]
}
